Laboratory results: patent publication US10774076B2, “Benzazole compounds and methods for making and using the compounds” (Rigel Pharmaceuticals, Inc., priority 2015, dated 2020)

Legend:
IL23-p19 = experiment: Compound screening using DC cells: LPS-induced IL-23 (p19/p40) ELISA in IFNγ-primed dendritic cells differentiated from human PBMC; type: cell-based; conditions: Dendritic cell, human PBMC-derived dendritic cells, LPS 1 μg/ml, 18 hours, 10 pt
Procedure: Compound Screening Using DC Cells
Human PBMC cells (400 million) obtained from the vendor were transferred into a T-175 flask containing 15 ml RPMI media (10% FBS) and incubate for 2 hours at 37° C. After 2 hours, the media including floating cells was aspirated out carefully and 12 ml of fresh RPMI media (10% FBS) containing GMCSF (100 ng/ml) and IL4 (20 ng/ml) was added, and the flask was kept in a 37° C. incubator for 7 days.
After 3 days, fresh GMCSF (100 ng/ml) and IL4 (20 ng/ml) were added to the flask and the incubation continued. After 7 days, the fully differentiated cells were harvested by spinning down (1200 rpm/5 min) and aspirating the media. The cells were suspended in fresh RPMI media (10% FBS) containing 50 ng/ml IFNγ (1000 U/ml) and then plated (50K/well in 100 μl) onto a white clear bottom 96 well plate and left in a 37° C. incubator for 24 hours.
After 24 hours incubation, 100 μl of RPMI media was added containing 2× concentrated test compound per well to the above cell-culture media (final concentration becomes 1×) and the plates were pre-incubated for 1 hour at 37° C. before stimulating with LPS.
After 1 hour compound pre-incubation, 10 μl per well of 20× concentrated LPS solution in RPMI media was added to give a final concentration of 1 μg/ml. The mixture was shaken and incubated the plates at 37° C. for an additional 18 hours.
155 μl of the supernatant was harvested from each well carefully (without the tip touching the bottom of the well) and to the remaining 50 μl/well of the cell culture plate was added 50 μl of Cell Titer Glo reagent. The mixture was incubated for 1-2 minutes on a shaker and the plate was read for luminescence intensity to determine the compound cytotoxicity. The cell culture supernatant collected above was used to carry out IL23 ELISA (65 μl—Supernatant) and IL10 ELISA (90 μl—Supernatant) as described below.
Human IL-23 (p19/p40) ELISA Protocol (e-Biosciences)
To 10.5 ml PBS add 50 μl of anti-IL23 (p19) was added capture antibody (2.5 μg/ml). The mixture was mixed well and 100 μl of the coating solution was added to each well of the 96 well white plates from Pierce. The wells were covered and incubated overnight at 4° C.
The anti-IL23 (p19)-antibody-coated plates were washed 2× using TBST (use plate washer) and blocked using 200 μl of 0.5% Casein for 1.5-2 hours at room temperature with shaking.
The plates were washed 2× using TBST and the supernatant was transferred (65 μl/well) to the above pre-blocked/IL23(p19)-antibody-coated 96 well plate, and incubated at room temperature for 1.5 hours with shaking.
The plates were washed 4× using TBST (plate washer) and 100 μl/well detection antibody solution prepared from 2 μl of biotin labeled anti-IL-12 (p40/p70) antibody in 11 ml 1% BSA/PBS solution (I-5000 dilution) was added. The plates were incubated for 1 hour with shaking at Room temperature.
Again, the plates were washed 4× with TBST and 100 μl of HRP labeled Streptavidin (R&D Systems) solution (10 μl/10 ml 1% BSA solution) was added, and the plates were incubated at room temperature for another 45 minutes with shaking.
After 45 minutes, the plates were washed with TBST 4× and 100 ul/well Super Signal ELISA Pico Chemiluminescent Substrate from Pierce (3.5 ml A+3.5 ml B+3.5 ml MQ water) was added. The plates were shaken for 1-2 minutes then read on a plate reader.

IL23p19 = experiment: LPS Induced IL23p19 in THP-1 Cells (with IFNγ Primed) Assay; type: cell-based; conditions: Homo sapiens, IFNγ primed (50 ng/mL), LPS 1 ug/mL, 18 hours, 10 pt, read-out: IL23-p19 ELISA, THP1-IFNy, LPS, 10 pt EC50
Source text: LPS Induced IL23p19 in THP-1 Cells (with IFNγ Primed) Assay
THP-1 Cells (ATCC, Cat # TIB-202), Dimethyl Sulfoxide (DMSO) (Sigma-Aldrich, Cat # D2650), RPMI 1640 (Cellgro, Cat #10-040-CM), Fetal Bovine Serum (Sigma, Cat # F4135), Albumin From Bovine Serum (BSA) (Sigma-Aldrich, Cat # A7906), LPS (Serotype K-235, Sigma, Product Number L 2143), IFNγ (Peprotech, Cat #300-02)
Capture antibody: Human IL-23p19 ELISA (e-Bioscience, Cat. #14-7238-85),
Detection antibody: Primary Mouse Biotinylated anti-human IL-12(p40/p70) (e-Bioscience, Cat. #13-7129-85), Secondary HRP-conjugated Streptavidin (R&D Systems, Cat # DY998), 1×PBST Washing Buffer (PBS-Tween tablet) (VWR International, Cat #80058-558), ELISA Blocking Buffer (PBS with 1% BSA), ELISA Dilution Buffer (PBS with 1% BSA), 384 Well Flat-Bottom, MaxiSorp Black Immuno Plates (Thermo Scientific, Cat #12-565-346), 384 Well Flat-Bottom, White Tissue Culture Plates (Thermo Scientific, Cat #12-565-343), Super Signal ELISA Pico Chemiluminescent Substrate (Thermo Scientific, Cat #37070), Cell Titer Glo reagent (Promega, Cat # G7573), Positive control, IKK2VI inhibitor (Calbiochem, Cat #401483), AquaMax 4000 plate washer (Molecular Devices), Luminometer, Wallac Victor2 1420 Multilabel Counter. Method THP-1 Cells Stimulation:
On day 1, 50K/well THP-1 cells were seeded and primed with IFNγ (50 ng/mL) in 384-well plates for about 18 hours in RPMI media with 10% FBS. On day 2, the compound was serially diluted in DMSO from 5 mM in 3-fold dilutions, and then diluted 1:125 in RPMI media with 10% FBS. 50 μL/well 2× compound was added to 50 μL/well THP-1 cells (with IFNγ primed) in duplicate in 384 well tissue culture plates. The cells were pre-incubated with compound for 1 hour at 37° C., 5% CO2 before addition of 10 μL/well 11×LPS to give a final concentration of 1 ug/mL LPS. Day 3, after stimulation for 18 hours at 37° C., 5% CO2, the assay plate was centrifuged and 70 μL/well supernatant was harvested. IL-23p19 protein in 70 μL/well of supernatant was measured by sandwich ELISA, and 25 μl/well Cell Titer Glo reagent was added to the remaining cells to measure compound toxicity.
Human IL-23p19 Sandwich ELISA:
Maxisorp immuno ELISA plates were pre-coated with 25 μL/well of anti-IL-23p19 capture antibody (2.5 ug/mL) in PBS overnight at room temperature. After washing with 1×PBST, the plates were blocked using 100 μL/well of 1% BSA in PBS for 2 hours at room temperature. The plates were washed three times with 1×PBST and 70 μL/well supernatant were added. The plates were incubated at room temperature for 2 hours with shaking and washed three times with 1×PBST. 25 μL/well of biotin labeled anti-IL-12(p40/p70) detection antibody (100 ng/mL) in PBS with 1% BSA was added and the plates were incubated at room temperature for 2 hours with shaking. After washing three times with 1×PBST, 25 μL/well of streptavidin-HRP (1:200) in PBS with 1% BSA was added and the plates were incubated at room temperature for 20 minutes with shaking. The plates were washed three times with 1×PBST and 25 μL/well of Super Signal ELISA Pico Chemiluminescent Substrate were added. The plates were read with a luminometer, and the chemiluminescence values were entered into Athena (Rigel) for curve fitting, EC50 calculation, and database storage.

| EC50 (IL23-p19) | EC50 (IL23p19) | SMILES |
| --- | --- | --- |
| 1.02 µM | 1.23 µM | CN1CCN(c2nc3cc(N4CCCCC4)c(NC(=O)c4ccc(-c5cc[nH]n5)o4)cc3o2)CC1 [Compound I-17, N-(2-(4-methylpiperazin-1-yl)-5-(piperidin-1-yl)benzo[d]oxazol-6-yl)-5-(1H-pyrazol-3-yl)furan-2-carboxamide] |
| 0.444 µM | 0.144 µM | O=C(Nc1cc2oc(N3CCCCC3)nc2cc1N1CCCCC1)c1ccc(-c2cn[nH]c2)o1 [Compound I-31, N-(2,5-di(piperidin-1-yl)benzo[d]oxazol-6-yl)-5-(1H-pyrazol-4-yl)furan-2-carboxamide] |
| 0.106 µM | 0.302 µM | O=C(Nc1cc2oc(N3CCOCC3)nc2cc1N1CCC(F)(F)CC1)c1csc(-c2cn[nH]c2)n1 [Compound I-29, N-(5-(4,4-difluoropiperidin-1-yl)-2-morpholinobenzo[d]oxazol-6-yl)-2-(1H-pyrazol-4-yl)thiazole-4-carboxamide] |
| 0.257 µM | 0.432 µM | Nc1ccc(-c2ccc(C(=O)Nc3cc4sc(N5CCOCC5)nc4cc3N3CCCCC3)o2)cn1 [Compound I-5, 5-(6-aminopyridin-3-yl)-N-(2-morpholino-5-(piperidin-1-yl)benzo[d]thiazol-6-yl)furan-2-carboxamide] |
| 0.0322 µM | 0.0258 µM | CN1CCN(c2nc3cc(N4CCCCC4)c(NC(=O)c4ccc(-c5cn[nH]c5)o4)cc3o2)CC1 [Compound I-16, N-(2-(4-methylpiperazin-1-yl)-5-(piperidin-1-yl)benzo[d]oxazol-6-yl)-5-(1H-pyrazol-4-yl)furan-2-carboxamide] |
| 0.041 µM | 0.025 µM | O=C(Nc1cc2oc(N3CCOCC3)nc2cc1N1CCCC(F)C1)c1csc(-c2cn[nH]c2)n1 (centres unmarked) [Compound I-40, N-(5-(3-fluoropiperidin-1-yl)-2-morpholinobenzo[d]oxazol-6-yl)-2-(1H-pyrazol-4-yl)thiazole-4-carboxamide] |
| 0.157 µM | 0.0757 µM | O=C(Nc1cc2oc(N3CCOCC3)nc2cc1N1CCC(F)CC1)c1ccc(-c2cn[nH]c2)o1 [Compound I-23, N-(5-(4-fluoropiperidin-1-yl)-2-morpholinobenzo[d]oxazol-6-yl)-5-(1H-pyrazol-4-yl)furan-2-carboxamide] |
| 2.62 µM | 0.344 µM | Cc1cc(-c2ccc(C(=O)Nc3cc4oc(N5CCOCC5)nc4cc3N3CCCC(F)(F)C3)o2)ccn1 [Compound I-43, N-(5-(3,3-difluoropiperidin-1-yl)-2-morpholinobenzo[d]oxazol-6-yl)-5-(2-methylpyridin-4-yl)furan-2-carboxamide] |
| 17.9 µM | 10.2 µM | Cc1cc(-c2nc(C(=O)Nc3cc4oc(N5CCOCC5)nc4cc3N3CCCCC3)cs2)ccn1 [Compound I-14, 2-(2-methylpyridin-4-yl)-N-(2-morpholino-5-(piperidin-1-yl)benzo[d]oxazol-6-yl)thiazole-4-carboxamide] |
| 0.0481 µM | 0.0504 µM | O=C(Nc1cc2oc(N3CCOCC3)nc2cc1N1CCOCC1)c1csc(-c2cn[nH]c2)n1 [Compound I-49, N-(2,5-dimorpholinobenzo[d]oxazol-6-yl)-2-(1H-pyrazol-4-yl)thiazole-4-carboxamide] |
| 5.77 µM | 1.08 µM | Cc1cc(-c2ccc(C(=O)Nc3cc4oc(N5CCOCC5)nc4cc3N3CCC(F)CC3)o2)ccn1 [Compound I-24, N-(5-(4-fluoropiperidin-1-yl)-2-morpholinobenzo[d]oxazol-6-yl)-5-(2-methylpyridin-4-yl)furan-2-carboxamide] |
| 0.101 µM | 0.0887 µM | O=C(Nc1cc2oc(N3CCOCC3)nc2cc1N1CCCC(F)(F)C1)c1csc(-c2cn[nH]c2)n1 [Compound I-44, N-(5-(3,3-difluoropiperidin-1-yl)-2-morpholinobenzo[d]oxazol-6-yl)-2-(1H-pyrazol-4-yl)thiazole-4-carboxamide] |
| 14 µM | 40.5 µM | O=C(Nc1cc2sc(N3CCOCC3)nc2cc1N1CCCCC1)c1ccc(-c2cnc3[nH]ccc3c2)o1 [Compound I-6, N-(2-morpholino-5-(piperidin-1-yl)benzo[d]thiazol-6-yl)-5-(1H-pyrrolo[2,3-b]pyridin-5-yl)furan-2-carboxamide] |
| 0.889 µM | 7.51 µM | Cc1cc(-c2ccc(C(=O)Nc3cc4oc(N5CCN(C)CC5)nc4cc3N3CCCCC3)o2)ccn1 [Compound I-18, N-(2-(4-methylpiperazin-1-yl)-5-(piperidin-1-yl)benzo[d]oxazol-6-yl)-5-(2-methylpyridin-4-yl)furan-2-carboxamide] |
| 0.0371 µM | 0.02 µM | O=C(Nc1cc2oc(NCCN3CCOCC3)nc2cc1N1CCCCC1)c1csc(-c2cn[nH]c2)n1 [Compound I-52, N-(2-((2-morpholinoethyl)amino)-5-(piperidin-1-yl)benzo[d]oxazol-6-yl)-2-(1H-pyrazol-4-yl)thiazole-4-carboxamide] |
| 4.73 µM | 0.898 µM | Nc1ccc(-c2ccc(C(=O)Nc3cc4oc(N5CCOCC5)nc4cc3N3CCCCC3)o2)cn1 [Compound I-1, 5-(6-aminopyridin-3-yl)-N-(2-morpholino-5-(piperidin-1-yl)benzo[d]oxazol-6-yl)furan-2-carboxamide] |
